We go through 27 compounds from patent US9999859B2, “Immobilized multi-layer artificial membrane for permeability measurements (PAMPA)” (CORNING INCORPORATED, priority 2005, dated 2018).

A short description of series [1]: PAMPA permeability with subject invention membrane. The note with it: for Papp at 5 h: PAMPA; for measured permeability with 10% methanol, 90% PBS as working buffer: 90% PBS versus PBS, FIG. 8. The series is classed as in vitro ADME. The protocol: FIGS. 5-9 present various data relating to the subject invention. […] Then the filter plate 34 was coupled with the receiver plate 42 and the assembly was incubated in a humidity chamber without agitation at room temperature (except for a data set in FIG. 9, where the assembly was incubated in a humidity chamber without agitation at 37° C.) for 5 hours. At the end of the incubation, the plates 34, 42 were separated and 150 μL solution from each well 36, 44 of both the filter plate 34 and the receiver plate 42 was transferred to UV-transparent plates. The final concentrations of compounds in both donor wells and acceptor wells were analyzed by UV-plate reader. […] Where: • C0=initial compound concentration in donor well (mM) • CD (t)=compound concentration in donor well at time t. (mM) • CA (t)=compound concentration in acceptor well at time t.
A general note: PAMPA measures passive passage across an artificial lipid membrane.

The conditions of series [2]: human oral absorption; cited from earlier work.
The conditions of series [3]: cited from earlier work.
The mark [4] stands for this setting: PBS pH 7.4, room temperature, no agitation, 5 hours, read-out: Pe Subject Invention Membrane Results.
Where [5] appears, read: prior art PAMPA membrane, PBS pH 7.4, room temperature, no agitation.

Where two headings read alike, the source gives them in different places.

Turning to `CCCC(=O)Nc1ccc(OCC(O)CNC(C)C)c(C(C)=O)c1` (stereo not drawn) [acebutolol], the Papp at 5 h in series [1] (setting [4]) stood at 0.21 ×10⁻⁶ cm/s. In addition, the “Human Absorption” value in series [2] was 50%.

Consider `Nc1nc2c(ncn2COCCO)c(=O)[nH]1` [acyclovir], for which the Papp at 5 h in series [1] (setting [4]) is 0.1 ×10⁻⁶ cm/s.

On to `N=C(N)NC(=O)c1nc(Cl)c(N)nc1N` [amiloride], for which the Papp at 5 h in series [1] (setting [4]) stood at 0.08 ×10⁻⁶ cm/s. In series [2], the “Human Absorption” value is 50%. Also, in series [3] (setting [5]), the “Pe Prior Art Results” value is recorded as 0.00 10^−6 cm/s.

`Cc1cc(=O)n(-c2ccccc2)n1C` [antipyrine]: the “PAMPA permeability values found by the prior art” value (“PAMPA permeability values found” below) in series [3] (PAMPA) is listed as “low”. In addition, the “Pe Prior Art Results” value in series [3] (setting [5]) is recorded as 0.74 10^−6 cm/s.

Consider `Cn1c(=O)c2c(ncn2C)n(C)c1=O` [caffeine], for which the “PAMPA permeability values found” value in series [3] (in words) was “low”.

As for `NC(=O)N1c2ccccc2C=Cc2ccccc21` [carbamazepine], the Papp at 5 h in series [1] (setting [4]) turned out to be 7.79 ×10⁻⁶ cm/s. Also, the “Human Absorption” value in series [2] was 100%. For the same compound, the “Pe Prior Art Results” value in series [3] (setting [5]) is given as 6.4 10^−6 cm/s.

In the case of `Clc1cccc(Cl)c1N=C1NCCN1` [clonidine], the Papp at 5 h in series [1] (setting [4]) is 4.92 ×10⁻⁶ cm/s. Moreover, the “Human Absorption” value in series [2] is recorded as 100%. The “Pe Prior Art Results” value in series [3] (setting [5]) is given as 1.5 10^−6 cm/s.

For the compound `O=C(O)Cc1ccccc1Nc1c(Cl)cccc1Cl` [diclofenac], in series [1] (setting [4]), the Papp at 5 h was 6.3 ×10⁻⁶ cm/s.

As to `NC(N)=Nc1nc(CSCCC(N)=NS(N)(=O)=O)cs1` [famotidine], the Papp at 5 h in series [1] (setting [4]) turned out to be 0.04 ×10⁻⁶ cm/s. In addition, in series [2], the “Human Absorption” value is listed as 40%. In addition, in series [3] (setting [5]), the “Pe Prior Art Results” value is 0.06 10^−6 cm/s.

On to `NS(=O)(=O)c1cc2c(cc1Cl)NCNS2(=O)=O` [hydrochlorothiazide], for which, in series [1] (setting [4]), the Papp at 5 h came to 0.09 ×10⁻⁶ cm/s. Also, the “Pe Prior Art Results” value in series [3] (setting [5]) is listed as 0.02 10^−6 cm/s.

Take `CC(C)Cc1ccc(C(C)C(=O)O)cc1` (stereo not drawn) [ibuprofen]: the Papp at 5 h in series [1] (setting [4]) is 4.39 ×10⁻⁶ cm/s. Further, the “Pe Prior Art Results” value in series [3] (setting [5]) is 2.4 10^−6 cm/s.

For `COc1ccc2c(c1)c(CC(=O)O)c(C)n2C(=O)c1ccc(Cl)cc1` [indomethacin], in series [1] (setting [4]), the Papp at 5 h is 6.24 ×10⁻⁶ cm/s.

Take `CC(C(=O)O)c1cccc(C(=O)c2ccccc2)c1` (stereo not drawn) [ketoprofen]: in series [1] (setting [4]), the Papp at 5 h came out at 3.1 ×10⁻⁶ cm/s. The “PAMPA permeability values found” value in series [3] (in words) is “low”.

In the case of `COCCc1ccc(OCC(O)CNC(C)C)cc1` (stereo not drawn) [metoprolol], the Papp at 5 h in series [1] (setting [4]) is 4.29 ×10⁻⁶ cm/s. Further, the “PAMPA permeability values found” value in series [3] (in words) was “low”.

For `Clc1ccc(COC(Cn2ccnc2)c2ccc(Cl)cc2Cl)c(Cl)c1` (stereo not drawn) [miconazole], in series [1], the “measured permeability with 10% methanol, 90% PBS as working buffer” value is listed as “can be measured”.

Turning to `CC(C)(C)NCC(O)COc1cccc2c1CC(O)C(O)C2` (stereo not drawn) [nadolol], the Papp at 5 h in series [1] (setting [4]) is 0.16 ×10⁻⁶ cm/s. In series [2], the “Human Absorption” value is 30%. Besides, the “Pe Prior Art Results” value in series [3] (setting [5]) is on record as 0.28 10^−6 cm/s.

On to `O=C1NC(=O)C(c2ccccc2)(c2ccccc2)N1` [phenytoin], for which the Papp at 5 h in series [1] (setting [4]) worked out at 5.73 ×10⁻⁶ cm/s. In series [3] (in words), the “PAMPA permeability values found” value is “low”. Further, the “Pe Prior Art Results” value in series [3] (setting [5]) is on record as 0.38 10^−6 cm/s.

With `CC(C)NCC(O)COc1cccc2[nH]ccc12` (stereo not drawn) [pindolol], the Papp at 5 h in series [1] (setting [4]) was determined as 2.64 ×10⁻⁶ cm/s.

With `CN1C(C(=O)Nc2ccccn2)=C(O)c2ccccc2S1(=O)=O` [piroxicam], the Papp at 5 h in series [1] (setting [4]) stood at 4.02 ×10⁻⁶ cm/s. For the same compound, in series [2], the “Human Absorption” value was 100%. The “Pe Prior Art Results” value in series [3] (setting [5]) is 2.64 10^−6 cm/s.

Turning to `CNC(=C[N+](=O)[O-])NCCSCc1ccc(CN(C)C)o1` [ranitidine], in series [1] (PBS pH 7.4, room temperature, no agitation, 5 hours), the “Pe Subject Invention Membrane Results” value is recorded as 0.45 10^−6 cm/s. Further, the “Human Absorption” value in series [2] is reported as 61%.

Regarding `O=C(O)c1cc(/N=N/c2ccc(S(=O)(=O)Nc3ccccn3)cc2)ccc1O` [sulphasalazine], the Papp at 5 h in series [1] (setting [4]) came out at 0.16 ×10⁻⁶ cm/s. For the same compound, in series [2], the “Human Absorption” value is 13%. In addition, the “Pe Prior Art Results” value in series [3] (setting [5]) was 0.00 10^−6 cm/s.

On to `CCN1CCCC1CNC(=O)c1cc(S(N)(=O)=O)ccc1OC` (stereo not drawn) [sulpiride], for which the Papp at 5 h in series [1] (setting [4]) stood at 0.18 ×10⁻⁶ cm/s.

Take `CC(C)(C)NCC(O)c1cc(O)cc(O)c1` (stereo not drawn) [terbutaline]: in series [1] (setting [4]), the Papp at 5 h is 0.46 ×10⁻⁶ cm/s. In series [2], the “Human Absorption” value is 60%. Moreover, in series [3] (setting [5]), the “Pe Prior Art Results” value is given as 0.05 10^−6 cm/s.

Turning to `CC(C)(C)c1ccc(C(O)CCCN2CCC(C(O)(c3ccccc3)c3ccccc3)CC2)cc1` (stereo not drawn) [terfenadine], in series [1], the “measured permeability with 10% methanol, 90% PBS as working buffer” value is “can be measured”.

For the compound `Cn1c(=O)c2[nH]cnc2n(C)c1=O` [theophyline], in series [3] (PAMPA, pH 7.4), the “Pe Prior Art Results” value is listed as 0.04 10^−6 cm/s.

Consider `CC(C)(C)NC[C@H](O)COc1nsnc1N1CCOCC1` [timolol], for which the Papp at 5 h in series [1] (setting [4]) was 4.45 ×10⁻⁶ cm/s. For the same compound, in series [3] (in words), the “PAMPA permeability values found” value is given as “low”. Further, the “Pe Prior Art Results” value in series [3] (setting [5]) is recorded as 0.61 10^−6 cm/s.

`CC(=O)CC(c1ccccc1)c1c(O)c2ccccc2oc1=O` (stereo not drawn) [warfarin] displayed a Papp at 5 h in series [1] (pH 7.4) of 5.28 ×10⁻⁶ cm/s.
